Results: publication PMC8345219 (Cancers, 2021)
“Also recorded” adds a separate entry of the source. Blank lines part the entries; values can stand above or below the compound they belong to. *1 amine or outer side, *2 acyl side, *3 side chain or, on linkers, in order; H or OH if unused. Where a SMILES comes first, the peptide text is derived from it. Bridges are numbered along the chain shown (N, C = ends). Primed or numbered codes have the meaning given here. Where no end group is shown, it is not given here. [ ]: non-standard residue; d: D form. The star is where a group is joined. Tam = 6-carboxy tetramethylrhodamine, CN(C)c1ccc2c(-c3cc(C(=O)*)ccc3C(=O)[O-])c3ccc(N(C)C)cc3[o+]c2c1; X1 = CN(C)c1ccc2c(c1)Oc1cc(N(C)C)ccc1C21OC(=O)c2ccc(C(=O)*)cc21; EG(4) = polyethylene glycol with four ethylene glycol units; PEG4 = NCCOCCOCCOCCOCCC(=O)O; d(hCys) = N[C@H](CCS)C(=O)O; hCys = N[C@@H](CCS)C(=O)O; CH2 = C([*:1])[*:2]

Columns and labels:
hCMKLR1 = target: T1, hCMKLR1 (Homo sapiens, UniProt Q99788); test: Calcium flux assay in COS-7 cells transfected with hCMKLR1_eYFP_GαΔ6qi4myr
T1 sequence (Q99788 1-373): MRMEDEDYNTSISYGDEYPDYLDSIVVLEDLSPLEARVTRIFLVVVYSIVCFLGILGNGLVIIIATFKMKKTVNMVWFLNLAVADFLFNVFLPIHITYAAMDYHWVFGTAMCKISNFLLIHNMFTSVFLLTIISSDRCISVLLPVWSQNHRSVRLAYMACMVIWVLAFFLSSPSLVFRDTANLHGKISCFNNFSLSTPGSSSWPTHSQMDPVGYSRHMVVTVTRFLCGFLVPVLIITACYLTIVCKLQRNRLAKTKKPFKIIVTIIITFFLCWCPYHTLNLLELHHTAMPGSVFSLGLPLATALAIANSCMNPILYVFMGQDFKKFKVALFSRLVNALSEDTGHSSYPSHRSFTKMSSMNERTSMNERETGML
Method: COS-7 cells were transfected in 75 cm^2 cell culture flasks with 12 µg of the hCMKLR1_eYFP_GαΔ6qi4myr_pV2 plasmid overnight using Metafectene Pro. Transfected cells were seeded in 96 well plates (100 µL cell suspension in DMEM + 10%FBS/well) and incubated overnight. […] All experiments were performed in triplicates, each experiment was repeated at least twice. Nonlinear regression was calculated using GraphPad Prism 5.

human blood plasma = conditions: 37 °C, up to 24 h
[1] = target: chemokine-like receptor 1 fused to eYFP (hCMKLR1-eYFP) (human) (UniProt Q99788)
[2] = target: chemokine-like receptor 1 fused to eYFP (hCMKLR1-eYFP) (human) (UniProt Q99788); remark: listed apart in the source
[3] = tested on: HEK293 cells stably transfected with CMKLR1-eYFP; test: Resazurin-based cell viability assay, HEK293-CMKLR1
Method: (§1) HEK293 cells stably transfected with CMKLR1-eYFP, empty HEK293 cells (15,000 cells in 100 µL suspension/well), or HMEC-1 cells (5000 cells in 100 µL suspension/well) in their respective cell culture media were seeded in 96 well plates (coated with poly D-lysine for HEK cells) and incubated at standard conditions overnight. Afterward, cells were incubated with peptides or MTX dissolved in cell culture media, and a medium without peptides was used as a control. […] Ethanol or media was removed and a 50 µL resazurin-based in vitro toxicology assay kit (Sigma-Aldrich, St. Lous, MO, USA) in cell culture media (1:10) was added to each well. After 1 h incubation time, the conversion of the resazurin was detected by measuring the fluorescence intensity at λem = 590 nm. All experiments were performed in duplicates and each experiment was repeated at least three times. Nonlinear regression was calculated using GraphPad Prism 5, curves were normalized to untreated and ethanol-treated cells.

[4] = tested on: untransfected HEK293 cells; test: Resazurin-based cell viability assay, untransfected HEK293; conditions: HEK293 cells devoid of CMKLR1, 72 h
Method: as §1

[5] = Investigation of plasma stability (Tam-labeled peptides, RP-HPLC); assay type: in vitro ADME; conditions: Tam-modified peptides, 10^−5 M in human blood plasma, 37 °C; one-phase decay
Method: Investigation of peptide stability in blood plasma was carried out as described previously [22]. Tam-labeled peptides were dissolved in human blood plasma at a concentration of 10^−5 M and incubated at 37 °C and 250 rpm. Samples taken at the respective time points were added to a solution of 0.1% SDS in ACN/EtOH (1:1). After incubation at −20 °C for 20 min, the supernatant was transferred to a new tube and incubated again at −20 °C for at least 3 h. […] Peaks were integrated, and the peak containing the intact peptide was normalized to the sample taken at t = 0 min (100%). Plasma half-life was determined using one-phase decay in Prism 5 (GraphPad, San Diego, CA, USA).

[6] = tested on: HEK293 cells stably transfected with CMKLR1-eYFP; test: Quantification of peptide uptake using a High Content Imager; assay type: cell-based; conditions: 1 µM Tam-labeled peptide, up to 1 h
Method: Cells were stimulated with 1 µM of the respective, Tam-labeled peptide for the specified periods, followed by washing with acidic wash (50 mM glycine, 100 mM NaCl, pH 3) in HBSS. Microscopy was carried out in OptiMEM using an ImageXpress Micro Confocal High-Content Imaging System (Molecular Devices, San José, CA, USA), using the appropriate filters for the respective fluorophores (Table 1). The fluorescence intensity per cell was automatically analyzed for each well by a module detecting the nuclei (5–30 µm in diameter and 100 gray levels above background) and the granules by Tam-peptide fluorescence (2–5 µm in diameter, 70 gray levels above background).

[7] = tested on: HEK293 cells transiently transfected with CMKLR1-eYFP; test: Live cell fluorescence microscopy of peptide uptake; assay type: cell-based; conditions: 1 µM Tam-labeled peptide, 60 min
Method: For fluorescence microscopy, HEK293 cells were seeded into Ibidi 15 µ-slides (140,000 cells/200 µL/well) coated with poly D-lysine and grown overnight. Next, cells were transfected with 900 ng CMKLR1-eYFP. Transfection was achieved using Lipofectamine 2000 according to the manufacturer’s protocol. One day post-transfection, fluorescence microscopy experiments were performed on an AxioVision Observer.Z1 microscope equipped with an ApoTome imaging system (Zeiss, Jena, Germany). […] To observe peptide uptake, cells were stimulated with 1 µM Tam-chemerin-9 in OptiMEM, which was replaced with acidic wash (50 mM glycine, 100 mM NaCl, pH 3) in HBSS after the indicated time, followed by two washing steps with OptiMEM. Microscopy was carried out in OptiMEM.

HMEC-1 cells = test: Resazurin-based cell viability assay, HMEC-1; conditions: Homo sapiens; HMEC-1 cells endogenously expressing CMKLR1, 72 h; read-out: IC50 (toxicity)
Method: as §1

[8] = EC50, Ca^2+ flux, normalized to chemerin-9 curve

Compound: C[C@@H]1NC(=O)[C@H](Cc2ccccc2)NC(=O)[C@H](CCC(N)=O)NC(=O)[C@H](NC(=O)[C@@H]2CCCN2C(=O)[C@H](Cc2ccccc2)NC(=O)[C@H](N)Cc2ccc(O)cc2)CSCSCC[C@@H](C(=O)O)NC(=O)[C@H](Cc2ccccc2)NC1=O [Compound 10, yFP(c(CH2)QFAFX)] (H-[dY]FP[dC]QFAF[hCys]-OH; linker 4-9 via CH2)
EC50 (hCMKLR1; [8]): 28 nM | EC50 (hCMKLR1; pEC50 ± SEM, Ca^2+ flux): 28 nM

Compound: Tam-EG(4)-YFP(xQFAFC)
not cleaved (human blood plasma): not degraded in blood plasma for at least 24 h; t1/2 >48 h

Compound: methotrexate conjugate 15, Mtx-GFLGK(Ac)YFP(xQFAFC) (peptide)
toxicity in a resazurin-based cell viability assay, HEK293 cells stably transfected with CMKLR1-eYFP, 72 h, IC50 (no toxicity on HEK293 cells devoid of CMKLR1 up to 10 µM) [1]: 61 nM | toxicity in a resazurin-based cell viability assay, HMEC-1 cells endogenously expressing CMKLR1, 72 h, IC50 [2]: 2000 nM

Compound: Mtx-GFLGK(Ac)YFP(xQFAFC) [Compound 15]
increase in toxicity compared to MTX itself ([3]; HEK293-CMKLR1): almost eightfold increase in toxicity | toxicity (in words) [4]: exerted no toxicity; also recorded: not toxic at concentrations up to 10 µM

Compound: Tam-YFP(cQFAFC) (X1-YFP[dC]QFAFC-OH; disulfide 4-9)
not cleaved (human blood plasma): remained completely intact for the course of the experiment (24 h); t1/2 >24 h

Compound: yFP(cQFK(Tam)FC)
not cleaved (human blood plasma): fully stable in blood plasma for 24 h; t1/2 >24 h

Compound: C[C@@H]1NC(=O)[C@H](Cc2ccccc2)NC(=O)[C@H](CCC(N)=O)NC(=O)[C@H](NC(=O)[C@@H]2CCCN2C(=O)[C@H](Cc2ccccc2)NC(=O)[C@@H](N)Cc2ccc(O)cc2)CSSC[C@@H](C(=O)O)NC(=O)[C@H](Cc2ccccc2)NC1=O [Compound 4, YFP(cQFAFC)] (H-YFP[dC]QFAFC-OH; disulfide 4-9)
EC50 (hCMKLR1; pEC50 ± SEM, Ca^2+ flux): 64.3 nM

Compound: C[C@@H]1NC(=O)[C@H](Cc2ccccc2)NC(=O)[C@H](CCC(N)=O)NC(=O)[C@H](NC(=O)[C@@H]2CCCN2C(=O)[C@H](Cc2ccccc2)NC(=O)[C@H](Cc2ccc(O)cc2)NC(=O)CCOCCOCCOCCOCCNC(=O)c2ccc3c(c2)C2(OC3=O)c3ccc(N(C)C)cc3Oc3cc(N(C)C)ccc32)CCSSC[C@@H](C(=O)O)NC(=O)[C@H](Cc2ccccc2)NC1=O [Compound 12T, Tam-EG(4)-YFP(xQFAFC)] ({X1-PEG4}-YFP[d(hCys)]QFAFC-OH; disulfide 4-9)
half-life [5]: > 48 h | intracellular accumulation of Tam-fluorescence over time [6]: comparable intracellular accumulation over time | intracellular Tam-fluorescence (peptide uptake) [7]: pronounced intracellular fluorescence is visible after 60 min of stimulation

Compound: CN(Cc1cnc2nc(N)nc(N)c2n1)c1ccc(C(=O)N[C@@H](CCC(=O)O)C(=O)O)cc1 [MTX, Methotrexate, reference compound]
IC50 ([3]; Homo sapiens, HEK293-CMKLR1, 72 h, read-out: IC50 (toxicity)): 471 nM | IC50 ([4]; Homo sapiens, read-out: IC50 (toxicity)): 373 nM | IC50 (HMEC-1 cells): 10000 nM

Compound: Tam-EG(4)-YFPGQFAAS ({Tam-EG(4)}-YFPGQFAAS) [Compound 13T, alanine-substituted Tam-labeled linear peptide, negative control]
intracellular accumulation of Tam-fluorescence over time [6]: did not accumulate in the cells

Next, values leading:

not cleaved (human blood plasma): same stability for 24 h; t1/2 >24 h
Compound: Tam-YFP(c(CH2)QFAFC)

EC50 (hCMKLR1; [8]): 37 nM | EC50 (hCMKLR1; pEC50 ± SEM, Ca^2+ flux): 37.2 nM
Compound: C[C@@H]1NC(=O)[C@H](Cc2ccccc2)NC(=O)[C@H](CCC(N)=O)NC(=O)[C@H](NC(=O)[C@@H]2CCCN2C(=O)[C@H](Cc2ccccc2)NC(=O)[C@@H](N)Cc2ccc(O)cc2)CSCSCC[C@@H](C(=O)O)NC(=O)[C@H](Cc2ccccc2)NC1=O [Compound 6, YFP(c(CH2)QFAFX)] (H-YFP[dC]QFAF[hCys]-OH; linker 4-9 via CH2)

not cleaved (human blood plasma): same stability for 24 h; t1/2 >24 h
Compound: Tam-YFP(c(CH2)QFAFX)

EC50 (hCMKLR1; [8]): 13 nM | EC50 (hCMKLR1; pEC50 ± SEM, Ca^2+ flux): 12.9 nM
Compound: C[C@@H]1NC(=O)[C@H](Cc2ccccc2)NC(=O)[C@H](CCC(N)=O)NC(=O)[C@H](NC(=O)[C@@H]2CCCN2C(=O)[C@H](Cc2ccccc2)NC(=O)[C@@H](N)Cc2ccc(O)cc2)CSCSC[C@@H](C(=O)O)NC(=O)[C@H](Cc2ccccc2)NC1=O [Compound 5, YFP(c(CH2)QFAFC)] (H-YFP[dC]QFAFC-OH; linker 4-9 via CH2)
